According to article PMC9832568, “Experimental and computational snapshots of C-C bond formation in a C-nucleoside synthase” (Open Biology, 2023):
Substitutions are numbered along the chain they refer to. Where “and” joins values, the source holds several entries; their conditions need not be identical. Equal values may be shown once. Blank lines part the entries; values can stand above or below the molecule they belong to.

Columns and labels:
WT ForT [1] = target: T1, WT ForT (Streptomyces kaniharaensis, UniProt A0A5S9CYM0); parameters: method as in PMID 31518483; details: ForT-catalysed coupling to PRPP, two products with a new C-C bond; cited from earlier work
ForT/PRPP complex = target: T2, ForT/PRPP complex (Streptomyces kaniharaensis, UniProt A0A5S9CYM0); experiment: Binding of HPDA to the ForT/PRPP complex; details: Li, unpublished
T2 sequence (A0A5S9CYM0 1-341): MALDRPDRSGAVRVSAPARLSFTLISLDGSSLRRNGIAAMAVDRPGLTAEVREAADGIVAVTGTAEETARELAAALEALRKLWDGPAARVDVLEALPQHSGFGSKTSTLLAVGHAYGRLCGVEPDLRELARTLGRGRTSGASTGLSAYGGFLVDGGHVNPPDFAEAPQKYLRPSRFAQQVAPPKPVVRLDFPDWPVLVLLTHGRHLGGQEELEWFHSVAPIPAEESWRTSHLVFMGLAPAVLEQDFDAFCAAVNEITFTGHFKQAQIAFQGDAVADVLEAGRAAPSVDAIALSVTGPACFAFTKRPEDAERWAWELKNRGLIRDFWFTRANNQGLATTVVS

WT ForT [2] = target: T1, WT ForT; experiment: Substrate scope of WT ForT, LC-MS assay; type: biochemical; details: MgPRPP
Experimental: We assayed a series of pyrazoles as ForT substrates in which the extracyclic amine was replaced by hydrogen (PDA), nitro- (NPDA), methyl- (MPDA) and iodo- (IPDA) groups (figure 5a; electronic supplementary material, table S1). […] On the other hand, 4-amino-1H-pyrazole-3-carboxylate (APCA) can be coupled to PRPP by ForT to give two products containing a new C-C bond, albeit in less than 5% overall yield (figure 5b). In order to assess the importance of pyrazole substitution, we incubated 3-amino-1H-pyrazole-4-carboxylate (iso-APCA) (electronic supplementary material, table S2) and MgPRPP in the presence of ForT. […] Thus, the product was one of two possible C-N nucleotides.

T138A ForT variant = target: T3, T138A ForT variant (Streptomyces kaniharaensis, UniProt A0A5S9CYM0, T138A); experiment: biochemical
T3 sequence (A0A5S9CYM0 1-341 T138A): T2 sequence (A0A5S9CYM0 1-341) with T138A

K263A ForT variant = target: T4, K263A ForT variant (Streptomyces kaniharaensis, UniProt A0A5S9CYM0, K263A); experiment: biochemical
T4 sequence (A0A5S9CYM0 1-341 K263A): T2 sequence (A0A5S9CYM0 1-341) with K263A

S174A ForT variant = target: T5, S174A ForT variant (Streptomyces kaniharaensis, UniProt A0A5S9CYM0, S174A); experiment: biochemical
T5 sequence (A0A5S9CYM0 1-341 S174A): T2 sequence (A0A5S9CYM0 1-341) with S174A

S21A ForT variant = target: T6, S21A ForT variant (Streptomyces kaniharaensis, UniProt A0A5S9CYM0, S21A); experiment: biochemical
T6 sequence (A0A5S9CYM0 1-341 S21A): T2 sequence (A0A5S9CYM0 1-341) with S21A

WT ForT [3] = target: T1, WT ForT; experiment: ITC binding of PRPP to free enzyme, absence of Mg2+; details: no Mg2+, room temperature
Source text: We therefore extended these studies to obtain the binding affinity of APDA to the ForT/PRPP binary complex at room temperature using isothermal calorimetry (ITC) measurements. […] The omission of the catalytically important metal ion thereby avoids any heat generated by catalytic turnover ‘contaminating’ heat released by ligand binding. As a result, these ITC studies report only on the affinity of PRPP and APDA for the free WT enzyme and its PRPP binary complex, respectively.

E211A ForT variant = target: T7, E211A ForT variant (Streptomyces kaniharaensis, UniProt A0A5S9CYM0, E211A); experiment: biochemical
T7 sequence (A0A5S9CYM0 1-341 E211A): T2 sequence (A0A5S9CYM0 1-341) with E211A

T138V ForT variant = target: T8, T138V ForT variant (Streptomyces kaniharaensis, UniProt A0A5S9CYM0, T138V); experiment: biochemical
T8 sequence (A0A5S9CYM0 1-341 T138V): T2 sequence (A0A5S9CYM0 1-341) with T138V

L24A ForT variant = target: T9, L24A ForT variant (Streptomyces kaniharaensis, UniProt A0A5S9CYM0, L24A); experiment: biochemical
T9 sequence (A0A5S9CYM0 1-341 L24A): T2 sequence (A0A5S9CYM0 1-341) with L24A

Structure (SMILES): Nc1cn[nH]c1C(=O)O [APCA, 4-amino-1H-pyrazole-3-carboxylate]
overall yield of coupled products (WT ForT [1]): less than 5%

Structure (SMILES): O=C(O)c1n[nH]c(C(=O)O)c1O [HPDA, 4-hydroxy-1H-pyrazole-3,5-dicarboxylic acid]
Kd (ForT/PRPP complex): 37000 nM
substrate for the ForT-catalysed coupling with PRPP (WT ForT [2]): is not a substrate

Structure (SMILES): O=C(O)c1n[nH]c(C(=O)O)c1I [IPDA]
substrate for the ForT-catalysed coupling with PRPP (WT ForT [2]): None of these pyrazole-dicarboxylates proved to be substrates

Structure (SMILES): Cc1c(C(=O)O)n[nH]c1C(=O)O [MPDA]
substrate for the ForT-catalysed coupling with PRPP (WT ForT [2]): None of these pyrazole-dicarboxylates proved to be substrates

Structure (SMILES): O=C(O)c1n[nH]c(C(=O)O)c1[N+](=O)[O-] [NPDA]
substrate for the ForT-catalysed coupling with PRPP (WT ForT [2]): None of these pyrazole-dicarboxylates proved to be substrates

Structure (SMILES): O=C(O)c1cc(C(=O)O)[nH]n1 [PDA]
substrate for the ForT-catalysed coupling with PRPP (WT ForT [2]): None of these pyrazole-dicarboxylates proved to be substrates

Structure (SMILES): O=P(O)(O)OC[C@H]1O[C@H](OP(=O)(O)OP(=O)(O)O)[C@H](O)[C@@H]1O [PRPP, 5′-phosphoribose-1′-pyrophosphate]
Kd (T138A ForT variant): 6700 ± 500 nM
Kd (K263A ForT variant): 20000 ± 8000 nM
Kd (S174A ForT variant): 6000 ± 300 nM
Kd (S21A ForT variant): 350 ± 20 nM
Kd (WT ForT [3]): 900 nM and 930 nM
Kd (E211A ForT variant): 950 ± 20 nM
Kd (T138V ForT variant): 700 ± 400 nM
Kd (L24A ForT variant): 1500 ± 100 nM

substrate for the ForT-catalysed coupling with PRPP (WT ForT [2]): a new product had been formed
Structure (SMILES): Nc1[nH]ncc1C(=O)O [iso-APCA, 3-amino-1H-pyrazole-4-carboxylate]
